The text below walks through data of ChEMBL document CHEMBL1201862, “PubChem BioAssay data set” (2004).

Structures are written as SMILES.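 Values below derive from 48-hour exposures of cells grown in 96-well plates, with endpoints linearly interpolated between the two concentrations bracketing the appropriate inhibition level. GI50: concentration for 50% inhibition of growth.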 Active and inactive are the calls of the source. Rule as the data show it: active = GI50 up to about 1.1 µM and inactive = higher.

Common to all, as to assay: growth of human tumour cells (NCI), 48 h
Assay [1] deals with A549.
The test system of assay [2] is HCC 2998.
In assay [3] the test system is HL-60.
In assay [4] the test system is IGROV-1.
The subject of assay [5] is KM12.
Assay [6] concerns LOX IMVI.
The test system of assay [7] is MOLT-4.
The test system of assay [8] is Malme-3M.
Assay [9] concerns SF-295.
In assay [10] the test system is SK-MEL-28.
Assay [11] deals with SK-OV-3.
Assay [12] concerns SN12C.
The test system of assay [13] is SW-620.
Assay [14] concerns U-251.
The test system of assay [15] is OVCAR-5.

On to `CCCCCCCCCCCCCCCc1nnc(SCC(=O)O)[nH]1`, for which the GI50 was 79.1 µM (inactive) in [1]; 43.9 µM (inactive) in [2]; 34.8 µM (inactive) in [3]; 36.1 µM (inactive) in assay [4]; 48.3 µM (inactive) in assay [5]; 33.4 µM (inactive) in assay [6]. Also, the GI50 in assay [7] was 11.7 µM (inactive); in assay [8], > 100 µM (inactive); in assay [9], 40 µM (inactive); in [10], 80.7 µM (inactive); in assay [11], 45.4 µM (inactive); in assay [12], 71.9 µM (inactive). Further, the results for the GI50 in assay [13] and in assay [14] were 95.5 µM (inactive) and 26.4 µM (inactive), respectively.

With `CCCC1C[C@H]2CCCCN2[C@H]2CCCN12` (stereo partly drawn), the GI50 in [1] is > 87.1 µM (inactive); in assay [2], > 100 µM (inactive); in assay [3] it was > 37.8 µM (inactive); in assay [4], > 100 µM (inactive); in assay [5], > 100 µM (inactive); in assay [6], > 39.4 µM (inactive). In addition, the GI50 in assay [7], in assay [8], in [15], in [9], in assay [10] and in [11] was > 100 µM (inactive) throughout. The GI50 in assay [12] was > 100 µM (inactive); in assay [13], > 37.8 µM (inactive); in [14] it was > 44.4 µM (inactive).

`CC1=C(C(=O)Nc2cc(F)c(F)cc2F)C(c2cccc([N+](=O)[O-])c2)C(C(=O)Nc2ccccc2C(F)(F)F)=C(C)N1` (stereo not drawn): the GI50 in assay [1] was 26.8 µM (inactive); in assay [2], 20 µM (inactive); in assay [3], 14.6 µM (inactive); in [4], 23.5 µM (inactive); in assay [5] it was 21.3 µM (inactive); in assay [6], 17.9 µM (inactive). Moreover, the GI50 in assay [7] was 12.5 µM (inactive); in assay [8], 25.4 µM (inactive); in assay [15] it was 17.9 µM (inactive); in assay [9], 23.4 µM (inactive); in assay [10], 22 µM (inactive); in assay [11] it was 23.2 µM (inactive). Also, the GI50 is 19.8 µM (inactive) in [12], 31 µM (inactive) in assay [13] and 16.9 µM (inactive) in assay [14].

`CCCCc1c2c(nc3c1CC/C(=C\c1ccccc1)C3=O)CCCC2`: the GI50 in assay [1] was 12.3 µM (inactive); in [2], 3.52 µM (inactive); in assay [3] it was 2.79 µM (inactive); in assay [4], 4.61 µM (inactive); in assay [5], 3.85 µM (inactive); in assay [6], 1.76 µM (inactive). Further, the GI50 in assay [7] was 3.33 µM (inactive); in assay [8], 7.33 µM (inactive); in assay [9] it was 4.47 µM (inactive); in assay [10], 3.37 µM (inactive); in assay [11], 10.2 µM (inactive); in assay [12] it was 3.18 µM (inactive). Besides, the GI50 is 1.99 µM (inactive) in assay [13] and 3.49 µM (inactive) in assay [14].

As to `CC1(C)C(=O)C(C)(C)C1=NN`, the GI50 in [1], in assay [2], in assay [3], in assay [4], in assay [5] and in assay [6] was > 100 µM (inactive) in each case. Further, the GI50 in assay [7], in [8], in assay [15], in assay [9], in assay [10] and in [11] was > 100 µM (inactive) each time. The GI50 in [12], in assay [13] and in [14] was > 100 µM (inactive) in each case.

`CCSC(SCC)=C1C(=O)N(c2ccccc2)N=C1C`: the GI50 in assay [1] is 18.1 µM (inactive); in [2], 14.5 µM (inactive); in assay [3], 2.33 µM (inactive); in [4] it was 17.4 µM (inactive); in assay [5], 19.3 µM (inactive); in assay [6], 12.4 µM (inactive). In addition, the GI50 in assay [7] is 6.98 µM (inactive); in assay [8], 10.4 µM (inactive); in assay [15] it was 15.9 µM (inactive); in [9], 23.7 µM (inactive); in [10], 12.9 µM (inactive); in [11] it was 17.9 µM (inactive). For the same compound, the GI50 in assay [12] is 16.1 µM (inactive); in assay [13] it was 7.66 µM (inactive).

`N#C/C(=C(/S)Nc1ccccc1)c1nc2ccccc2[nH]1`: the GI50 in assay [1] was > 10 µM (inactive); in assay [2], > 10 µM (inactive); in assay [3] it was > 10 µM (inactive); in [4], 1 µM (active); in assay [5], > 10 µM (inactive); in assay [6], > 10 µM (inactive). In addition, the GI50 in assay [7] is > 10 µM (inactive); in assay [8], > 10 µM (inactive); in [15], > 10 µM (inactive); in assay [10] it was > 10 µM (inactive); in assay [11], 0.634 µM (active); in assay [12] it was > 10 µM (inactive). Also, the GI50 in assay [13] and in [14] was > 10 µM (inactive) in each case.

As to `O=[N+]([O-])c1ccc(C[P+]2(c3ccccc3)CCCCC2)cc1.[O-][Cl+3]([O-])([O-])[O-]`, the GI50 in [1], in assay [2], in assay [3], in assay [4], in assay [5] and in assay [6] was > 100 µM (inactive) in each case. In addition, the GI50 in assay [7], in assay [8], in assay [15], in assay [9], in [10] and in [11] was > 100 µM (inactive) throughout. In addition, the GI50 in assay [12], in assay [13] and in assay [14] was > 100 µM (inactive) throughout.

Regarding `CCOP1(=O)C=CC(Cl)=C(C)C1` (stereo not drawn), the GI50 in [1] was 31.1 µM (inactive); in [2] it was 15.9 µM (inactive); in assay [3] it was 3.57 µM (inactive); in [4], 23.4 µM (inactive); in assay [5] it was 18.3 µM (inactive); in [6], 19.2 µM (inactive). Also, the GI50 is 3.64 µM (inactive) in assay [7]; 14.3 µM (inactive) in assay [8]; 24.2 µM (inactive) in [15]; 35.2 µM (inactive) in assay [9]; 16.2 µM (inactive) in assay [10]; 48 µM (inactive) in assay [11]. Moreover, the GI50 in assay [12] was 11.7 µM (inactive); in assay [13], 11.5 µM (inactive); in [14] it was 24.4 µM (inactive).

`COc1ccc(CNc2cc(OC)cc(OC)c2)cc1`: the GI50 in assay [1] is 60.8 µM (inactive); in [2], > 87.1 µM (inactive); in [3], > 39.2 µM (inactive); in assay [4], > 71.6 µM (inactive); in [5], 48.6 µM (inactive); in assay [6], 56.8 µM (inactive). Besides, the GI50 in assay [7] is > 42.9 µM (inactive); in assay [8], > 56.6 µM (inactive); in assay [10], 51.5 µM (inactive); in assay [11] it was > 66.7 µM (inactive); in assay [13], > 100 µM (inactive); in assay [14] it was > 88.5 µM (inactive).
